The record followed here is patent US10071973B2, “Crystalline isoxazole hydroxamic acid compounds” (priority 2016, dated 2018).

One data set relates to P.A. PAO1 NB52019. The experiment in a line: MIC by broth microdilution (CLSI), P. aeruginosa. Type of data set: cell-based. The settings on record: Pseudomonas aeruginosa, 35° C., 20 hours. As for the experimental part:
(§1) Bacterial isolates were cultivated from −70° C. frozen stocks by two consecutive overnight passages at 35° C. in ambient air on 5% blood agar (Remel, Lenexa, Kans.). Quality control strain, P. aeruginosa ATCC 27853, A. baumannii ATCC19606 and E. coli ATCC 25922 are from the American Type Culture Collection (ATCC; Rockville, Md.) and PAO1 was received from Dr. K. Poole.
(§2) Minimal Inhibitory Concentrations (MICs) were determined by the broth microdilution method in accordance with Clinical and Laboratories Institute (CLSI) guidelines (CLSI M100-S25, Performance Standards for Antimicrobial Susceptibility Testing; Twenty-fifth Informational Supplement). In brief, fresh bacterial overnight cultures were resuspended in sterile saline, adjusted to a 0.5 McFarland turbidity standard and then diluted 2000-fold in cation adjusted Mueller-Hinton Broth II (MHB; Remel BBL) to yield a final inoculum of approximately 5×10^5 colony-forming units (CFU)/mL. […] Following incubation, assay plates were read in a microtiter plate reader at 600 nm and visually inspected to confirm the MIC endpoint well with the OD value. The lowest concentration of the compound that prevented visible growth was recorded as the MIC. Performance of the assay was monitored by testing ciprofloxacin against the laboratory quality control strain in accordance with guidelines of the CLSI.

In another data set the test system is E. coli ATCC 25922. The experiment in a line: MIC by broth microdilution (CLSI), E. coli, alone and with rifampicin. The settings on record: Escherichia coli. The class given is cell-based. As for the experimental part:
as §1, §2

In another data set the test system is A. baumannii ATCC19606. Kind of data set: MIC by broth microdilution (CLSI), A. baumannii, alone and with rifampicin. The class given is cell-based. The conditions noted are these: Acinetobacter baumannii. The method, then: as §1, §2
Data set [1] is described as follows: Stability (colour) of the solid on standing at ambient temperature. The settings on record: ambient / room temperature, over time. The class given is physicochemical. An excerpt:
This material required special handling and was not considered suitable for development as a pharmaceutical.

Data set [2] can be described thus: Hygroscopicity: mass change with relative humidity / deliquescence. Type of data set: physicochemical. The conditions noted are these: for hygroscopicity / deliquescence (in words): exposed to air or humidity, amorphous: humidity of about 80% or higher. The method, then: FIG. 4. Isotherm Plots showing reversible mass changes of Crystalline Compound A over a Relative Humidity range of 0-90%.
Primary soller slit 2.5°; secondary soller slit 2.5°; divergent slit 0.6 mm; antiscatter slit 5.0 mm.

Entries after “also recorded” stand apart in the source; their conditions may differ. Like-named read-outs stand apart in the source and are kept apart here.

For `C[C@@](CCc1cc(C#CC2CC2)on1)(C(=O)NO)S(C)(=O)=O` [A, (R)-4-(5-(cyclopropylethynyl)isoxazol-3-yl)-N-hydroxy-2-methyl-2-(methylsulfonyl)butanamide], the MIC in the data set on P.A. PAO1 NB52019 is 0.25 µg/mL; in the data set with E. coli ATCC 25922 (ATCC 25922 / ATCC 29522, in presence of 2 μg/ml rifampicin, read-out: E.C. ATCC 29522 (+2 μg/ml RIF) MIC), no more than 0.06 µg/mL; with E. coli ATCC 25922 (ATCC25922, broth microdilution, 35° C., 20 hours, read-out: E.C. ATCC 25922 MIC), 2 µg/mL; in the data set on A. baumannii ATCC19606 (broth microdilution, 35° C., 20 hours, read-out: A.B. ATCC 19606 MIC) it was greater than 64 µg/mL; with A. baumannii ATCC19606 (in presence of 2 μg/ml rifampicin, read-out: A.B. ATCC 19606 (+2 μg/ml RIF) MIC) it was 0.125 µg/mL.

Take `C[C@@](CCc1cc(C#CC2CC2)on1)(C(=O)NO)S(C)(=O)=O` [amorphous Compound (A), (R)-4-(5-(cyclopropylethynyl)isoxazol-3-yl)-N-hydroxy-2-methyl-2-(methylsulfonyl)butanamide]: in data set [1], the “colour stability on standing” value is recorded as “developed a brownish color over time; also recorded: tended to darken on standing at ambient temperature”. In addition, the “hygroscopicity / deliquescence (in words)” value in data set [2] is recorded as “significantly deliquescent”.

`C[C@@](CCc1cc(C#CC2CC2)on1)(C(=O)NO)S(C)(=O)=O` [crystalline Compound (A), (R)-4-(5-(cyclopropylethynyl)isoxazol-3-yl)-N-hydroxy-2-methyl-2-(methylsulfonyl)butanamide]: the “mass increase (hygroscopicity)” value in data set [2] (RH=90%) was found to be 3.2%; in data set [2] (relative humidity (RH) of 80%), 1.3%. In data set [2], the “hygroscopicity / deliquescence (in words)” value is given as “low hygroscopicity”.
